In brackets after ≈: the same amount, converted by molar mass.
Columns and labels:
[1] = Selectivity index, ratio of CC50 for human MT4 cells to IC50 for HIV2 ROD; assay type: functional
[2] = test system: Human immunodeficiency virus 1; test: Antiviral activity against Human immunodeficiency virus 1 IIIB infected MT4 cells assessed as inhibition of virus-induced cytopathogenicity after 5 days by MTT assay; assay type: functional, organism-based; details: MT4, 120 h
[3] = Selectivity index, ratio of CC50 for human MT4 cells to IC50 for HIV1 3B; assay type: functional
[4] = Cytotoxicity against Homo sapiens (human) MT4 cells after 5 days by MTT assay; assay type: cell-based
[5] = test system: Human immunodeficiency virus 2; test: Antiviral activity against Human immunodeficiency virus type 2 (ISOLATE ROD) infected MT4 cells assessed as inhibition of virus-induced cytopathogenicity after 5 days by MTT assay; assay type: functional, organism-based; details: Human immunodeficiency virus 2, ISOLATE ROD, MT4, 120 h
Escherichia coli = test: Antibacterial activity against Escherichia coli MTCC 442 after overnight incubation by broth microdilution method; assay type: functional
Streptococcus pyogenes = test: Antibacterial activity against Streptococcus pyogenes MTCC 443 after overnight incubation by broth microdilution method; assay type: functional
Candida albicans = test: Antifungal activity against Candida albicans MTCC 227 after overnight incubation by broth microdilution method; assay type: functional
Aspergillus clavatus = test: Antifungal activity against Aspergillus clavatus MTCC 323 after overnight incubation by broth microdilution method; assay type: functional
Staphylococcus aureus = test: Antibacterial activity against Staphylococcus aureus MTCC 96 after overnight incubation by broth microdilution method; assay type: functional
Pseudomonas aeruginosa = test: Antibacterial activity against Pseudomonas aeruginosa MTCC 2488 after overnight incubation by broth microdilution method; assay type: functional
Aspergillus niger = test: Antifungal activity against Aspergillus niger MTCC 282 after overnight incubation by broth microdilution method; assay type: functional
[6] = test system: Mycobacterium tuberculosis; test: Antitubercular activity against Mycobacterium tuberculosis H37Rv after 28 days by Lowenstein-Jensen agar method; assay type: functional; details: 672 h
[7] = test system: Mycobacterium tuberculosis; test: Growth inhibition of Mycobacterium tuberculosis H37Rv at MIC after 28 days by Lowenstein-Jensen agar method; assay type: functional

With `NNc1nc2ccc(F)cc2s1` the “Ratio CC50/IC50” value [1] was less than 1, the IC50 [2] was greater than 13.8 µg/mL and the “Ratio CC50/IC50” value [3] was less than 1. The CC50 at 120 h [4] was 13.8 µg/mL (≈ 75.2 µM) and the IC50 [5] was greater than 13.8 µg/mL.
For `Clc1ccc(-c2nnc(-c3cccnc3)n2Nc2nc3ccc(Cl)cc3s2)cc1`, the MIC99 (Escherichia coli) was 1000 µg/mL (≈ 2280 µM), the MIC99 (Streptococcus pyogenes) was 500 µg/mL (≈ 1140 µM) and the “Ratio CC50/IC50” value [1] was less than 1. For the same compound, the IC50 [2] was greater than 54.3 µg/mL, the “Ratio CC50/IC50” value [3] was less than 1 and the MIC99 (Candida albicans) was 100 µg/mL (≈ 228 µM). It also gave an MIC99 (Aspergillus clavatus) of 1000 µg/mL (≈ 2280 µM), an MIC99 (Staphylococcus aureus) of 250 µg/mL (≈ 569 µM) and an MIC99 (Pseudomonas aeruginosa) of 500 µg/mL (≈ 1140 µM). It also gave an MIC99 (Aspergillus niger) of 500 µg/mL (≈ 1140 µM), an MIC [6] of 250 µg/mL (≈ 569 µM) and a CC50 at 120 h [4] of 54.3 µg/mL (≈ 124 µM). For the same compound, the “growth inhibition (GI)” value [7] was 96% and the IC50 [5] was greater than 54.3 µg/mL.
With `Cc1cccc2sc(Nn3c(-c4ccc(Cl)cc4)nnc3-c3cccnc3)nc12` the MIC99 (Escherichia coli) was 500 µg/mL (≈ 1190 µM), the MIC99 (Streptococcus pyogenes) was 1000 µg/mL (≈ 2390 µM) and the “Ratio CC50/IC50” value [1] was less than 1. For the same compound, the IC50 [2] was greater than 36.4 µg/mL, the “Ratio CC50/IC50” value [3] was less than 1 and the MIC99 (Candida albicans) was 200 µg/mL (≈ 477 µM). It also gave an MIC99 (Aspergillus clavatus) of 500 µg/mL (≈ 1190 µM), an MIC99 (Staphylococcus aureus) of 100 µg/mL (≈ 239 µM) and an MIC99 (Pseudomonas aeruginosa) of 250 µg/mL (≈ 597 µM). It also gave an MIC99 (Aspergillus niger) of 500 µg/mL (≈ 1190 µM), an MIC [6] of 50 µg/mL (≈ 119 µM) and a CC50 at 120 h [4] of 36.5 µg/mL (≈ 87 µM). The “growth inhibition (GI)” value [7] was 95% and the IC50 [5] was greater than 36.4 µg/mL.
With `O=[N+]([O-])c1cccc2sc(Nn3c(-c4ccc(Cl)cc4)nnc3-c3cccnc3)nc12` the MIC99 (Escherichia coli) was 100 µg/mL (≈ 222 µM), the MIC99 (Streptococcus pyogenes) was 250 µg/mL (≈ 556 µM) and the “Ratio CC50/IC50” value [1] was less than 1. For the same compound, the IC50 [2] was greater than 21.3 µg/mL, the “Ratio CC50/IC50” value [3] was less than 1 and the MIC99 (Candida albicans) was 100 µg/mL (≈ 222 µM). The MIC99 (Aspergillus clavatus) was 500 µg/mL (≈ 1110 µM), the MIC99 (Staphylococcus aureus) was 200 µg/mL (≈ 445 µM) and the MIC99 (Pseudomonas aeruginosa) was 125 µg/mL (≈ 278 µM). It also gave an MIC99 (Aspergillus niger) of 500 µg/mL (≈ 1110 µM), an MIC [6] of 500 µg/mL (≈ 1110 µM) and a CC50 at 120 h [4] of 21.3 µg/mL (≈ 47.4 µM). For the same compound, the “growth inhibition (GI)” value [7] was 97% and the IC50 [5] was greater than 21.3 µg/mL.
With `Clc1ccc(-c2nnc(-c3cccnc3)n2Nc2nc3cc(Cl)c(Cl)cc3s2)cc1` the MIC99 (Escherichia coli) was 500 µg/mL (≈ 1060 µM), the MIC99 (Streptococcus pyogenes) was 500 µg/mL (≈ 1060 µM) and the “Ratio CC50/IC50” value [1] was less than 1. The IC50 [2] was greater than 52.1 µg/mL, the “Ratio CC50/IC50” value [3] was less than 1 and the MIC99 (Candida albicans) was 250 µg/mL (≈ 528 µM). For the same compound, the MIC99 (Aspergillus clavatus) was 1000 µg/mL (≈ 2110 µM), the MIC99 (Staphylococcus aureus) was 500 µg/mL (≈ 1060 µM) and the MIC99 (Pseudomonas aeruginosa) was 250 µg/mL (≈ 528 µM). It also gave an MIC99 (Aspergillus niger) of 250 µg/mL (≈ 528 µM), an MIC [6] of 250 µg/mL (≈ 528 µM) and a CC50 at 120 h [4] of 52.1 µg/mL (≈ 110 µM). For the same compound, the “growth inhibition (GI)” value [7] was 98% and the IC50 [5] was greater than 52.1 µg/mL.
In the case of `Clc1ccc(-c2nnc(-c3cccnc3)n2Nc2nc3c(Cl)cccc3s2)cc1`, the MIC99 (Escherichia coli) is reported as 100 µg/mL (≈ 228 µM), the MIC99 (Streptococcus pyogenes) is reported as 500 µg/mL (≈ 1140 µM) and the “Ratio CC50/IC50” value [1] is reported as less than 1. For the same compound, the IC50 [2] was greater than 27.2 µg/mL, the “Ratio CC50/IC50” value [3] was less than 1 and the MIC99 (Candida albicans) was 200 µg/mL (≈ 455 µM). The MIC99 (Aspergillus clavatus) was 500 µg/mL (≈ 1140 µM), the MIC99 (Staphylococcus aureus) was 250 µg/mL (≈ 569 µM) and the MIC99 (Pseudomonas aeruginosa) was 62.5 µg/mL (≈ 142 µM). For the same compound, the MIC99 (Aspergillus niger) was 500 µg/mL (≈ 1140 µM), the MIC [6] was 12.5 µg/mL (≈ 28.5 µM) and the CC50 at 120 h [4] was 27.2 µg/mL (≈ 61.8 µM). The “growth inhibition (GI)” value [7] was 98% and the IC50 [5] was greater than 27.2 µg/mL.
With `O=[N+]([O-])c1ccc(-c2nnc(-c3cccnc3)o2)cc1` the “Ratio CC50/IC50” value [1] was less than 1, the IC50 [2] was greater than 73.5 µg/mL and the “Ratio CC50/IC50” value [3] was less than 1. It also gave a CC50 at 120 h [4] of 73.5 µg/mL (≈ 274 µM) and an IC50 [5] greater than 73.5 µg/mL.
`CC1(C)S[C@@H]2[C@H](NC(=O)[C@H](N)c3ccccc3)C(=O)N2[C@H]1C(=O)O` [AMPICILLIN] showed an MIC99 (Escherichia coli) of 100 µg/mL (≈ 286 µM), an MIC99 (Streptococcus pyogenes) of 100 µg/mL (≈ 286 µM) and an MIC99 (Staphylococcus aureus) of 250 µg/mL (≈ 715 µM). The MIC99 (Pseudomonas aeruginosa) was 100 µg/mL (≈ 286 µM).
For `Clc1ccccc1C(c1ccccc1)(c1ccccc1)n1ccnc1` [CLOTRIMAZOLE], the MIC [6] was 20.4 µg/mL (≈ 59.2 µM) and the “growth inhibition (GI)” value [7] was 96%.
With `Clc1ccc(COC(Cn2ccnc2)c2ccc(Cl)cc2Cl)cc1` (stereo not given) [ECONAZOLE] the MIC [6] was 12.5 µg/mL (≈ 32.7 µM) and the “growth inhibition (GI)” value [7] was 99%.
In the case of `COC1=CC(=O)C[C@@H](C)[C@]12Oc1c(Cl)c(OC)cc(OC)c1C2=O` [GRISEOFULVIN], the MIC99 (Candida albicans) is reported as 500 µg/mL (≈ 1420 µM), the MIC99 (Aspergillus clavatus) is reported as 100 µg/mL (≈ 283 µM) and the MIC99 (Aspergillus niger) is reported as 100 µg/mL (≈ 283 µM).
For `NNC(=O)c1ccncc1` [ISONIAZID], the MIC [6] was 0.2 µg/mL (≈ 1.46 µM) and the “growth inhibition (GI)” value [7] was 99%.
With `CO[C@H]1/C=C/O[C@@]2(C)Oc3c(C)c(O)c4c(O)c(c(/C=N/N5CCN(C)CC5)c(O)c4c3C2=O)NC(=O)/C(C)=C\C=C\[C@H](C)[C@H](O)[C@@H](C)[C@@H](O)[C@@H](C)[C@H](OC(C)=O)[C@@H]1C` [RIFAMPIN] the MIC [6] was 40 µg/mL (≈ 48.6 µM) and the “growth inhibition (GI)” value [7] was 99%.
